Source: patent US8999957B2, “Heterocyclic compounds as ERK inhibitors” (Merck Sharp & Dohme Corp., priority 2010, dated 2015)
pIC50, pKd: −log10 of the molar value.

Columns and labels:
[1] = molecular target: inactive ERK2 (unphosphorylated Mouse ERK2 protein) (Mus musculus (Mouse), UniProt P63085); experiment: Coupled ERK2 (cERK) assay, coupled MEK1/ERK2 IMAP assay; type: biochemical; settings: 30 μM ATP
Protocol: 14 μl of kinase buffer (10 mM Tris.HCl pH 7.2, 10 mM MgCl2, 0.01% Tween-20, 1 mM DTT) containing 0.4 ng unphosphorylated Mouse ERK2 protein was added to each well of a black 384-well assay plate. […] DMSO concentration during initial incubation is 6.7%. ERK2 activity was determined to be insensitive to DMSO concentrations up to 20%. ERK2 was then activated and it's kinase activity measured by the addition of 10 μl kinase buffer with the following components (final concentration per reaction): 2 ng active (phosphorylated) human MEK1 protein and 4 μM (total) ERK2 IMAP substrate peptides (3.9 μM unlabeled […]-CONH2 and 100 nM […](5-carboxyfluorescein)-CONH2) and 30 μM ATP. DMSO concentration during ERK activation was 4%. After one hour, reactions were terminated by addition of 60 μl IMAP detections beads in binding buffer (Molecular Devices). Binding was allowed to equilibrate for 30 minutes before reading the plate on an LJL Analyst Fluorescence Polarization plate reader. […] Active compounds were reconfirmed in an independent assay.

[2] = molecular target: fully phosphorylated, active Mouse ERK2 protein (Mus musculus (Mouse), UniProt P63085); experiment: Active ERK2 (aERK) IMAP assay, condition 1; type: biochemical; settings: aERK assay condition 1, 30 μM ATP
Protocol: Active ERK2 (aERK) Assay: (Unless Indicated Otherwise, the Data Provided for aERK was obtained using Condition 1)
Activated ERK2 activity was also determined in the IMAP assay format using the procedure outlined above. […] Reactions proceeded for 30 minutes before termination by addition of 60 μl IMAP detection beads in binding buffer. Plates were read as above after 30 minute binding equilibration.

ERK protein = ERK protein (Mus musculus, UniProt P63085); experiment: TdF (Temperature Dependence Fluorescence, thermal shift) assay for ERK; type: binding; settings: 3 μM ERK protein, uncertainty estimated ±50%, read-out: Kd TdF
Source text: Assays: TdF Assay for ERK […] The TdF assay was mainly conducted in the 96-well based CHROMO-4 real time fluorescence plate reader (BioRad). The Sypro Orange (Sigma-Aldrich), environmentally sensitive fluorescence dye, was used to monitor the protein folding-unfolding transition. Protein-ligand binding was gauged by the change (or shift) in the unfolding transition temperature (ΔTm) acquired at protein alone with respect to protein in the presence of ligand of interest. Compound of interest was first prepared in DMSO stock (typical concentration: 10 mM). […] Final percentage of DMSO resided in the sample was 2%. The sample plate was heated from 30° C. to 90° C. with thermal ramping rate of 1° C./min. […] The instrument thermal stability was ±0.2° C. The melting temperatures (Tm) for ERK protein under aforementioned conditions occurred at 61.0±0.2° C. and 64.8±02° C. respectively. Theoretical Basis for TdF-Based Ligand Binding Affinity Constant […] In brief, the binding constant of the ligand at the Tm is expressed as below: [formula] where T0 is the midpoint of unfolding for unliganded protein and Tm is the midpoint of unfolding in presence of ligand. [LTm] is free ligand at Tm. The ΔHu and ΔCpu are the enthalpy of unfolding and heat capacity change of unfolding for the protein respectively. Following algorithm derived by Winsor and coworker, the T0, ΔHu and ΔCpu can be determined separately from nonlinear regression fitting the protein alone melting curve: Where F(T) is the observed fluorescence intensity at any temperature T, Yn and Yu are the predicted fluorescence intensities for fully folded and unfolded protein, respectively; mn and mu are slope correction for changes in Yn and Yu with respect to changes in temperature (analogously replace T0 with Tm in the above equation for liganded protein to yield Tm). […] [formula] where ΔHL (T) is the van't Hoff enthalpy of ligand binding at temperature T and ΔCpL is the heat capacity upon ligand binding. For simplicity, the ΔCpL and ΔHL (T) were set to zero and −7 kcal/mol respectively.

Sequence of fully phosphorylated, active Mouse ERK2 protein (P63085 whole entry): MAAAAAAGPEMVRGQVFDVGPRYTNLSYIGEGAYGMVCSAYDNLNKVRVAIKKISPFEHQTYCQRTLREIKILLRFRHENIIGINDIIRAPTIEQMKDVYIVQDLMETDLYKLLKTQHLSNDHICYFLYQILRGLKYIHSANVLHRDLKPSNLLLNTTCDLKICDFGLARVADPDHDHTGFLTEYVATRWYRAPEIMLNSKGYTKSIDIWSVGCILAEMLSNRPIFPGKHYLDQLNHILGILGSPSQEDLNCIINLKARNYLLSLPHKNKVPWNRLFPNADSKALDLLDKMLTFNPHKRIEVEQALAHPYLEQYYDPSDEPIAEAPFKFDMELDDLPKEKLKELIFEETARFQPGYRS
Sequence of inactive ERK2 (unphosphorylated Mouse ERK2 protein) (P63085 whole entry): as above
Sequence of ERK protein (P63085 2-358 limits assumed): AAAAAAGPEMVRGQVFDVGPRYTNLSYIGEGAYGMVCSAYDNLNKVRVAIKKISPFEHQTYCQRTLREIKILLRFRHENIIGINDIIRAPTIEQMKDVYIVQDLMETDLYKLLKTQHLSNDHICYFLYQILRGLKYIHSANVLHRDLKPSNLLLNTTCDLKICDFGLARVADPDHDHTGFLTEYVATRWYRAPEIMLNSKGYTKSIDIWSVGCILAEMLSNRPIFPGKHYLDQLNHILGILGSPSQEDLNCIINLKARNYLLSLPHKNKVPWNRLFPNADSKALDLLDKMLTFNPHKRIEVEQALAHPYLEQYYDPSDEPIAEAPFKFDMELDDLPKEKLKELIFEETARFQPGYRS

Row | Compound | pIC50 [2] | pKd (ERK protein) | pIC50 [1]
1 | O=C(N[C@@H]1CCCN(Cc2ccccc2)C1)c1ccc2[nH]nc(-c3ccncc3)c2c1 | 8.24 | 9.52 | 8.54
2 | O=C(NC1CCCN(Cc2ccccc2F)C1)c1ccc2[nH]nc(-c3ccncc3)c2c1 (stereo not shown) | 7.55 | 9.52 | 7.84
3 | O=C(N[C@@H]1CCCN(Cc2ccccc2F)C1)c1ccc2[nH]nc(-c3ccnc(Cl)c3)c2c1 | 7.58 | 9.24 | 7.60
4 | CC(C)Oc1ccc(-c2n[nH]c3ccc(C(=O)N[C@@H]4CCCN(Cc5ccccc5F)C4)cc23)cn1 | 7.11 | 8.70 | 6.91
5 | O=C(NC1CCCN(Cc2ccccc2)C1)c1ccc2[nH]nc(-c3ccncc3)c2c1 (stereo not shown) | 7.49 | 9.22 | 7.78
6 | CC(c1ccccc1)N1CCC[C@@H](NC(=O)c2ccc3[nH]nc(-c4ccncc4)c3c2)C1 (stereo partly shown) | 6.32 | 6.09 | 6.12
7 | CC(C)Oc1ccc(-c2n[nH]c3ccc(C(=O)NC4CCCN(Cc5ccccc5F)C4)cc23)cn1 (stereo not shown) | 6.11 | 8.54 | 6.51
8 | O=C(N[C@@H]1CCCN(Cc2nccs2)C1)c1ccc2[nH]nc(-c3ccc4c(c3)CCO4)c2c1 | 6.60 | 7.98 | –
9 | COc1cccc(F)c1CN1CCC[C@@H](NC(=O)c2ccc3[nH]nc(-c4cccc(C#N)c4)c3c2)C1 | 6.58 | 9.08 | –
10 | O=C(N[C@@H]1CCCN(Cc2ccccn2)C1)c1ccc2[nH]nc(-c3ccc4c(c3)CCO4)c2c1 | 6.23 | 8.04 | –
11 | COc1cccc(CN2CCC[C@@H](NC(=O)c3ccc4[nH]nc(-c5ccnc(C)c5)c4c3)C2)n1 | 6.66 | 8.63 | –
12 | Cc1cc(-c2n[nH]c3ccc(C(=O)N[C@@H]4CCCN(Cc5cc(F)c(Cl)cc5Cl)C4)cc23)ccn1 | 6.18 | 8.01 | –
13 | COc1cccc(F)c1CN1CCC[C@@H](NC(=O)c2ccc3[nH]nc(-c4cccc(NC(C)=O)c4)c3c2)C1 | 6.54 | 8.86 | –

Further lines, with some results ahead:

Row | pIC50 [2] | pKd (ERK protein) | Compound | pIC50 [1]
14 | 6.81 | 9.62 | COc1cccc(F)c1CN1CCC[C@@H](NC(=O)c2ccc3[nH]nc(-c4ccc(C#N)cc4)c3c2)C1 | –
15 | 6.86 | 9.01 | COc1ccsc1CN1CCC[C@@H](NC(=O)c2ccc3[nH]nc(-c4ccnc(C)c4)c3c2)C1 | –
16 | 7.53 | 9.29 | Cc1cc(-c2n[nH]c3ccc(C(=O)N[C@@H]4CCCN(Cc5c(F)cccc5F)C4)cc23)ccn1 | –
17 | 7.19 | 9.18 | COc1cccc(F)c1CN1CCC[C@@H](NC(=O)c2ccc3[nH]nc(-c4ccc(O)c(NC(C)=O)c4)c3c2)C1 | –
18 | 7.05 | 9.89 | Cc1cc(-c2n[nH]c3ccc(C(=O)N[C@@H]4CCCN(Cc5c(C)cccc5C)C4)cc23)ccn1 | –
19 | 7.05 | 8.40 | Cc1cc(-c2n[nH]c3ccc(C(=O)N[C@@H]4CCCN(Cc5cc6ccccc6s5)C4)cc23)ccn1 | –
20 | 6.95 | 9.09 | COc1cc(-c2n[nH]c3ccc(C(=O)N[C@@H]4CCCN(Cc5ccccc5F)C4)cc23)ccn1 | –
21 | 7.01 | 8.32 | Cc1cc(-c2n[nH]c3ccc(C(=O)N[C@@H]4CCCN(CCc5ccccc5F)C4)cc23)ccn1 | –
22 | 7.19 | 9.59 | COc1cccc(F)c1CN1CC(NC(=O)c2ccc3[nH]nc(-c4ccc5nccn5c4)c3c2)CC(C(=O)O)C1 (stereo not shown) | –
23 | 6.79 | 9.57 | COc1cccc(F)c1CN1CCC[C@@H](NC(=O)c2ccc3[nH]nc(-c4ccc5cn[nH]c5c4)c3c2)C1 | –
24 | 7.79 | 10.28 | CC1CC(NC(=O)c2ccc3[nH]nc(-c4ccncc4)c3c2)CN(Cc2ccccc2F)C1 (stereo not shown) | –
25 | 6.85 | 8.77 | COc1cccc(F)c1CN1CC(CO)CC(NC(=O)c2ccc3[nH]nc(-c4ccc5nccn5c4)c3c2)C1 (stereo not shown) | –
26 | 7.97 | 9.30 | Cc1cc(-c2n[nH]c3ccc(C(=O)N[C@@H]4CCCN(Cc5ccccc5F)C4)cc23)ccn1 | –
27 | 8.30 | 9.66 | COc1cccc(F)c1CN1CCC[C@@H](NC(=O)c2ccc3[nH]nc(-c4ccnc(C)c4)c3c2)C1 | –
